The supplement of paper PMC10307832

Assays:
Test in all cases: relative viability (nuclei count vs DMSO), 5 days (fraction); higher = more cells survive
[1] = system: ChaGo-K-1
In short: (§1)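 Nuclei were stained with Hoechst during a one-step fixation (final 0.05% Triton X-100, 1% formaldehyde, 1 ug/ml Hoechst) carried out 5 days after dosing, then counted on 4× images. The cells, lung cancer lines in 1536-well plates, had been dosed by pin tool the day after seeding with one drug alone or a fixed anchor-drug dose plus five library-drug doses (not always all listed) in √10 steps. Relative viability is the nuclei count in treated wells divided by that in vehicle wells, and each value is the median of duplicate plates.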

[2] = system: EMC-BAC-2
In short: as §1

[3] = system: EPLC-272H
In short: as §1

[4] = system: H3255
In short: as §1

[5] = system: HCC-44
In short: as §1

[6] = system: HCC-827
In short: as §1

[7] = system: LCLC-103H
In short: as §1

[8] = system: LCLC-97TM1
In short: as §1

[9] = system: NCI-H1355
In short: as §1

[10] = system: NCI-H1395
In short: as §1

[11] = system: NCI-H1563
In short: as §1

[12] = system: NCI-H1651
In short: as §1

[13] = system: NCI-H1793
In short: as §1

[14] = system: NCI-H1944
In short: as §1

[15] = system: NCI-H1993
In short: as §1

[16] = system: NCI-H2085
In short: as §1

[17] = system: NCI-H2087
In short: as §1

[18] = system: NCI-H23
In short: as §1

[19] = system: NCI-H2405
In short: as §1

[20] = system: NCI-H322M
In short: as §1

[21] = system: NCI-H520
In short: as §1

[22] = system: NCI-H650
In short: as §1

[23] = system: SK-MES-1
In short: as §1

[24] = system: UMC-11
In short: as §1

Clc1ccc(Nc2nnc(Cc3ccncc3)c3ccccc23)cc1 [Vatalanib] + N=C(N)NC(=N)NCCc1ccccc1 [Phenformin] (partner 250 µM)
relative viability ([1]; first compound 0.04 µM): 0.453 | relative viability ([1]; first compound 0.1265 µM): 0.407 | relative viability ([1]; first compound 0.4 µM): 0.522 | relative viability ([1]; first compound 1.265 µM): 0.432 | relative viability ([1]; first compound 4 µM): 0.431 | relative viability ([2]; first compound 0.04 µM): 0.511 | relative viability ([2]; first compound 0.1265 µM): 0.538 | relative viability ([2]; first compound 0.4 µM): 0.542 | relative viability ([2]; first compound 1.265 µM): 0.497 | relative viability ([2]; first compound 4 µM): 0.512 | relative viability ([3]; first compound 0.04 µM): 0.324 | relative viability ([3]; first compound 0.1265 µM): 0.323 | relative viability ([3]; first compound 0.4 µM): 0.275 | relative viability ([3]; first compound 1.265 µM): 0.349 | relative viability ([3]; first compound 4 µM): 0.348 | relative viability ([4]; first compound 0.04 µM): 0.397 | relative viability ([4]; first compound 0.1265 µM): 0.392 | relative viability ([4]; first compound 0.4 µM): 0.316 | relative viability ([4]; first compound 1.265 µM): 0.368 | relative viability ([4]; first compound 4 µM): 0.368 | relative viability ([5]; first compound 0.04 µM): 0.178 | relative viability ([5]; first compound 0.1265 µM): 0.257 | relative viability ([5]; first compound 0.4 µM): 0.0876 | relative viability ([5]; first compound 1.265 µM): 0.182 | relative viability ([5]; first compound 4 µM): 0.147 | relative viability ([6]; first compound 0.04 µM): 0.413 | relative viability ([6]; first compound 0.1265 µM): 0.418 | relative viability ([6]; first compound 0.4 µM): 0.304 | relative viability ([6]; first compound 1.265 µM): 0.425 | relative viability ([6]; first compound 4 µM): 0.378 | relative viability ([7]; first compound 0.04 µM): 0.339 | relative viability ([7]; first compound 0.1265 µM): 0.306 | relative viability ([7]; first compound 0.4 µM): 0.373 | relative viability ([7]; first compound 1.265 µM): 0.363 | relative viability ([7]; first compound 4 µM): 0.316 | relative viability ([8]; first compound 0.04 µM): 0.417 | relative viability ([8]; first compound 0.1265 µM): 0.388 | relative viability ([8]; first compound 0.4 µM): 0.46 | relative viability ([8]; first compound 1.265 µM): 0.407 | relative viability ([8]; first compound 4 µM): 0.396 | relative viability ([9]; first compound 0.04 µM): 0.511 | relative viability ([9]; first compound 0.1265 µM): 0.419 | relative viability ([9]; first compound 0.4 µM): 0.444 | relative viability ([9]; first compound 1.265 µM): 0.431 | relative viability ([9]; first compound 4 µM): 0.401 | relative viability ([10]; first compound 0.04 µM): 0.441 | relative viability ([10]; first compound 0.1265 µM): 0.419 | relative viability ([10]; first compound 0.4 µM): 0.437 | relative viability ([10]; first compound 1.265 µM): 0.399 | relative viability ([10]; first compound 4 µM): 0.449 | relative viability ([11]; first compound 0.04 µM): 0.641 | relative viability ([11]; first compound 0.1265 µM): 0.673 | relative viability ([11]; first compound 0.4 µM): 0.666 | relative viability ([11]; first compound 1.265 µM): 0.712 | relative viability ([11]; first compound 4 µM): 0.639 | relative viability ([12]; first compound 0.04 µM): 0.342 | relative viability ([12]; first compound 0.1265 µM): 0.29 | relative viability ([12]; first compound 0.4 µM): 0.311 | relative viability ([12]; first compound 1.265 µM): 0.312 | relative viability ([12]; first compound 4 µM): 0.405 | relative viability ([13]; first compound 0.04 µM): 0.354 | relative viability ([13]; first compound 0.1265 µM): 0.341 | relative viability ([13]; first compound 0.4 µM): 0.435 | relative viability ([13]; first compound 1.265 µM): 0.295 | relative viability ([13]; first compound 4 µM): 0.296 | relative viability ([14]; first compound 0.04 µM): 0.221 | relative viability ([14]; first compound 0.1265 µM): 0.198 | relative viability ([14]; first compound 0.4 µM): 0.212 | relative viability ([14]; first compound 1.265 µM): 0.188 | relative viability ([14]; first compound 4 µM): 0.19 | relative viability ([15]; first compound 0.04 µM): 0.492 | relative viability ([15]; first compound 0.1265 µM): 0.533 | relative viability ([15]; first compound 0.4 µM): 0.601 | relative viability ([15]; first compound 1.265 µM): 0.482 | relative viability ([15]; first compound 4 µM): 0.534 | relative viability ([16]; first compound 0.04 µM): 0.701 | relative viability ([16]; first compound 0.1265 µM): 0.668 | relative viability ([16]; first compound 0.4 µM): 0.734 | relative viability ([16]; first compound 1.265 µM): 0.724 | relative viability ([16]; first compound 4 µM): 0.632 | relative viability ([17]; first compound 0.04 µM): 0.484 | relative viability ([17]; first compound 0.1265 µM): 0.404 | relative viability ([17]; first compound 0.4 µM): 0.428 | relative viability ([17]; first compound 1.265 µM): 0.461 | relative viability ([17]; first compound 4 µM): 0.541 | relative viability ([18]; first compound 0.04 µM): 0.742 | relative viability ([18]; first compound 0.1265 µM): 0.719 | relative viability ([18]; first compound 0.4 µM): 0.78 | relative viability ([18]; first compound 1.265 µM): 0.714 | relative viability ([18]; first compound 4 µM): 0.748 | relative viability ([19]; first compound 0.04 µM): 0.425 | relative viability ([19]; first compound 0.1265 µM): 0.376 | relative viability ([19]; first compound 1.265 µM): 0.391 | relative viability ([19]; first compound 4 µM): 0.368 | relative viability ([20]; first compound 0.04 µM): 0.755 | relative viability ([20]; first compound 0.1265 µM): 0.789 | relative viability ([20]; first compound 0.4 µM): 0.826 | relative viability ([20]; first compound 1.265 µM): 0.685 | relative viability ([20]; first compound 4 µM): 0.759 | relative viability ([21]; first compound 0.04 µM): 0.722 | relative viability ([21]; first compound 0.1265 µM): 0.412 | relative viability ([21]; first compound 0.4 µM): 0.83 | relative viability ([21]; first compound 1.265 µM): 0.493 | relative viability ([21]; first compound 4 µM): 0.479 | relative viability ([22]; first compound 0.04 µM): 0.473 | relative viability ([22]; first compound 0.1265 µM): 0.427 | relative viability ([22]; first compound 1.265 µM): 0.446 | relative viability ([22]; first compound 4 µM): 0.439 | relative viability ([23]; first compound 0.04 µM): 0.659 | relative viability ([23]; first compound 0.1265 µM): 0.638 | relative viability ([23]; first compound 0.4 µM): 0.753 | relative viability ([23]; first compound 1.265 µM): 0.572 | relative viability ([23]; first compound 4 µM): 0.537 | relative viability ([24]; first compound 0.04 µM): 0.311 | relative viability ([24]; first compound 0.1265 µM): 0.328 | relative viability ([24]; first compound 0.4 µM): 0.319 | relative viability ([24]; first compound 1.265 µM): 0.298 | relative viability ([24]; first compound 4 µM): 0.333
